What was measured:
[1] = Matrix stability assay in fasted state simulated gastric fluid (FaSSGF); assay type: in vitro ADME; settings: for Matrix Stability: Remaining %: FaSSGF; for half-life: fasted state simulated gastric fluid (FaSSGF), fasted state simulated gastric fluid, pH 1.6, read-out: FaSSGF stability Half-life (converted)
Experimental: (§1) The ADME study for ICL-CCIC-0019, CK14, CK145 (5), CK146 (4) and CK147 (8) was performed by Charles River Drug Discovery Services (Essex, UK).
(§2) The predicted in vitro pharmacokinetic characteristics of compounds were evaluated by four ADME assays, namely kinetic solubility assay, metabolic stability assay using human liver microsome S9, permeability and efflux study using the Caco-2 cell line, and matrix stability assay using fasted state simulated gastric fluid (FaSSGF). All tested CHKA inhibitors were highly soluble (>150 μM) in 0.1 M PBS (2% DMSO) (Table 1). […] The in vivo clearance was calculated to predict the actual clearance in humans by scaling the clearance values, which takes into account liver weight, microsomes per liver and liver blood flow. […] In Caco-2 cell permeability assay, drug permeability was investigated and presented as apparent permeability coefficients (Papp) in A to B (A-B, apical to basolateral direction) and B to A (B-A, basolateral to apical direction).

[2] = biological target: PI3Ka E545K + p85 (Homo sapiens, UniProt P42336, E545K); assay: Lipid kinase screening (ADP-Glo), PI3Ka E545K + p85; assay type: biochemical
Chain of PI3Ka E545K + p85 (P42336 whole entry E545K): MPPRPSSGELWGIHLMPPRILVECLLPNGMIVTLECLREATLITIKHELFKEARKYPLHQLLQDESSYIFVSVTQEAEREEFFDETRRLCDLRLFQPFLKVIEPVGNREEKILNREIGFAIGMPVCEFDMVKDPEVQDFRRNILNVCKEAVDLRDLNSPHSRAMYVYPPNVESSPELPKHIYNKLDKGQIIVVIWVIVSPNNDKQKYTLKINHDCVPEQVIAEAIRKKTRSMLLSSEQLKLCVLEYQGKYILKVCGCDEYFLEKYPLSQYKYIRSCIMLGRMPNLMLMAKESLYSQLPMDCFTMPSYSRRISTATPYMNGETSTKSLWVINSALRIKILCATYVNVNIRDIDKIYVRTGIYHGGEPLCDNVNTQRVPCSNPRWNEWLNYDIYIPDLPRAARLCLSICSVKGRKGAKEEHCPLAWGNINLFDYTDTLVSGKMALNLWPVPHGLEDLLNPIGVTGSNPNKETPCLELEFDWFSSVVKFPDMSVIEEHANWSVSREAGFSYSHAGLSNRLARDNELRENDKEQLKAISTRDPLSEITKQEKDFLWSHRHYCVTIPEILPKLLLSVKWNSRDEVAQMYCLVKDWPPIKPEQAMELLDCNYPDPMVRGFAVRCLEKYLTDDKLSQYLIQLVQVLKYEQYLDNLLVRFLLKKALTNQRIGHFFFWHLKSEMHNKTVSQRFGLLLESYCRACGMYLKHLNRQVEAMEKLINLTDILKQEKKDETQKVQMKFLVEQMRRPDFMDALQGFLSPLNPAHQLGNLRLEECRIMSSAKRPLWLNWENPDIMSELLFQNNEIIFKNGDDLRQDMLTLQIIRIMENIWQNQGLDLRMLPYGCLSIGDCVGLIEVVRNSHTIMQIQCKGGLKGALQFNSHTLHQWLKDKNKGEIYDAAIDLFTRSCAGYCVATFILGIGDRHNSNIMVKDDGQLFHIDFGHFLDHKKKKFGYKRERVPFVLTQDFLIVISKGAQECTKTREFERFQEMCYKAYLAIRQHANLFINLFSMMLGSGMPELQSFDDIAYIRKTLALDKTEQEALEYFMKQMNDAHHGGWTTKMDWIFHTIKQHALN
Chain of PI3Ka E545K + p85 (P27986 whole entry partner): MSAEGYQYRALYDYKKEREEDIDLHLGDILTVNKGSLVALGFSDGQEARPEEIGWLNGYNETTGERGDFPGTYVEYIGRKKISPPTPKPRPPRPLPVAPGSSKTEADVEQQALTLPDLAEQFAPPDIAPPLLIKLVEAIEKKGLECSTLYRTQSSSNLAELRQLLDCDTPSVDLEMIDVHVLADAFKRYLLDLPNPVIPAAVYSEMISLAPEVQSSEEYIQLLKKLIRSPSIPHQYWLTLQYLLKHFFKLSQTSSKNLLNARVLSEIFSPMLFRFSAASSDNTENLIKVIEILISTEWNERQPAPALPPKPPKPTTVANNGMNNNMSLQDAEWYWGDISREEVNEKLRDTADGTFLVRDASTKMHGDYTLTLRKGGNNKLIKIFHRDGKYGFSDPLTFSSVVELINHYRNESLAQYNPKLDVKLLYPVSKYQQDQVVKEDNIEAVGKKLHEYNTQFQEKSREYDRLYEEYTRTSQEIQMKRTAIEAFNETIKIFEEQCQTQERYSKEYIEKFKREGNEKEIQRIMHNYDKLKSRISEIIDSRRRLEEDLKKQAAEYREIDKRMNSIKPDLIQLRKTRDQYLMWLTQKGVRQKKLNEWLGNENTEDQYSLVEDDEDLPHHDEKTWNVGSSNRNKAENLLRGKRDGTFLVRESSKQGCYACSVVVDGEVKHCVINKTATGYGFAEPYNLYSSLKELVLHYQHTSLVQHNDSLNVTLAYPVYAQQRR
Experimental: (§3) The lipid kinase screening for ICL-CCIC-0019, CK14, CK145 (5), CK146 (4) and CK147 (8) (testing concentration for all compounds: 10 μM) was performed by MRC PPU International Centre for Kinase Profiling (Dundee, UK). The lipid kinase screening panel includes 15 human recombinant lipid kinases and the tests used Promega ADP Glo^TM High Throughput Assay kit (Promega, Southampton, UK). For each assay, reference compounds were used as quality control. Finally, mean percentage activity inhibited by compounds and standard deviation for all the repeats were calculated.

[3] = biological target: PI3K g (Homo sapiens, UniProt P48736); assay: Lipid kinase screening (ADP-Glo), PI3K g; assay type: biochemical
Experimental: as §3

[4] = biological target: PI3K a (Homo sapiens, UniProt P42336); assay: Lipid kinase screening (ADP-Glo), PI3K a; assay type: biochemical
Chain of PI3K a (P42336 whole entry): as the sequence (P42336 whole entry E545K) above, with K545E counted along it
Chain of PI3K a (P27986 whole entry partner): as the sequence (P27986 whole entry partner) above
Experimental: as §3

[5] = biological target: T1, SPHK2 (Homo sapiens, UniProt Q9NRA0); assay: Lipid kinase screening (ADP-Glo), SPHK2; assay type: biochemical
T1 sequence (Q9NRA0 1-654): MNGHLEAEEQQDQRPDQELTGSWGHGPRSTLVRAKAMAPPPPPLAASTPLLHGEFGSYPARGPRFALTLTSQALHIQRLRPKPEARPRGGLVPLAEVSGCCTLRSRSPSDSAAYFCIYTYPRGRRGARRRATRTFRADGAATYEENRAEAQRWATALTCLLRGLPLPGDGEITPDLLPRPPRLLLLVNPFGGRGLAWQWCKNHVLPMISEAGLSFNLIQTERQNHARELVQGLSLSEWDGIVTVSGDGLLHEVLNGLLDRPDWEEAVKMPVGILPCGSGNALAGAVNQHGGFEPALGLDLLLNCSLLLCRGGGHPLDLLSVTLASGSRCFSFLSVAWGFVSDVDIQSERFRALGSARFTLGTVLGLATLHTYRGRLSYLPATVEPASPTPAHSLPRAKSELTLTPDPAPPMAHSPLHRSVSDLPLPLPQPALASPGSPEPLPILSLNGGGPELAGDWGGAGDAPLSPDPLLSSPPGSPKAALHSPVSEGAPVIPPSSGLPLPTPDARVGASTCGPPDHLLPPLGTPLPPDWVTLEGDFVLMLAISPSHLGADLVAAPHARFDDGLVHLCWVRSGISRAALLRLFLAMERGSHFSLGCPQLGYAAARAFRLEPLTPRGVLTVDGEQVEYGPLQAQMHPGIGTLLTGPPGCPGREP
Experimental: as §3

[6] = Human microsomal metabolic stability assay; assay type: in vitro ADME; settings: for Predicted in vivo clearance: scaled from microsomal clearance (liver weight, microsomes per liver, liver blood flow); for Predicted in vivo clearance / PCT_LBF % (percentage of compound removed compared to liver blood flow) / microsomal CLint / half-life: human; for microsomal CLint / half-life: human liver microsome S9, human liver microsome S9; for microsomal CLint: read-out: Human Microsomal Metabolic Stability: Clint; for half-life: read-out: Human Microsomal Metabolic Stability: Half-life
Experimental: as §1, §2

[7] = Kinetic solubility assay; assay type: physicochemical; settings: 0.1 M PBS (2% DMSO), aqueous buffer, kinetic from dmso stock; read-out: Kinetic Solubility: Solubility
Experimental: as §1, §2

[8] = biological target: DGK g (Homo sapiens, UniProt P49619); assay: Lipid kinase screening (ADP-Glo), DGK g; assay type: biochemical
Chain of DGK g (P49619 whole entry): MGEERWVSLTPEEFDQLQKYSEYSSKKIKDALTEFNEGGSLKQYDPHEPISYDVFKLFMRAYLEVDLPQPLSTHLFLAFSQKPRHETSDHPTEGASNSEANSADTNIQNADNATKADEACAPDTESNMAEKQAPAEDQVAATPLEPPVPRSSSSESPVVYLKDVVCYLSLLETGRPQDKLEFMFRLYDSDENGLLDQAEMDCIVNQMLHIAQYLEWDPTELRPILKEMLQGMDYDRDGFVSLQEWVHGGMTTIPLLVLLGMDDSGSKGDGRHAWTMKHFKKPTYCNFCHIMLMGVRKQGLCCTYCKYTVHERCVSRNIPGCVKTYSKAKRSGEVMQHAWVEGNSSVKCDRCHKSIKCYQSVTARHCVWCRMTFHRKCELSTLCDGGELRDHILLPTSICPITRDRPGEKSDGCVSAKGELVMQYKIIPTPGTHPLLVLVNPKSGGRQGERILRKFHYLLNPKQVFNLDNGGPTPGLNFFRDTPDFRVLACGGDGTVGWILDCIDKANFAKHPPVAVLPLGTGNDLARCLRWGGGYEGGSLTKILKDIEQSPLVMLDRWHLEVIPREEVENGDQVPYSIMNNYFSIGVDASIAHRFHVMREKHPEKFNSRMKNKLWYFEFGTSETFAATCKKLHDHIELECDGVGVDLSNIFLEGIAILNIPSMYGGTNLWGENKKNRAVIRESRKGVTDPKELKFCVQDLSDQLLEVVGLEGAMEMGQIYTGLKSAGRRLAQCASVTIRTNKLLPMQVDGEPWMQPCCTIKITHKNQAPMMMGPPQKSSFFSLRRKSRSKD
Experimental: as §3

[9] = biological target: CHK a (CHKA) (Homo sapiens, UniProt P35790); assay: Lipid kinase screening (ADP-Glo), CHKA; assay type: biochemical; settings: for % Inhibition CHK a: 10 μM
Chain of CHK a (CHKA) (P35790 whole entry): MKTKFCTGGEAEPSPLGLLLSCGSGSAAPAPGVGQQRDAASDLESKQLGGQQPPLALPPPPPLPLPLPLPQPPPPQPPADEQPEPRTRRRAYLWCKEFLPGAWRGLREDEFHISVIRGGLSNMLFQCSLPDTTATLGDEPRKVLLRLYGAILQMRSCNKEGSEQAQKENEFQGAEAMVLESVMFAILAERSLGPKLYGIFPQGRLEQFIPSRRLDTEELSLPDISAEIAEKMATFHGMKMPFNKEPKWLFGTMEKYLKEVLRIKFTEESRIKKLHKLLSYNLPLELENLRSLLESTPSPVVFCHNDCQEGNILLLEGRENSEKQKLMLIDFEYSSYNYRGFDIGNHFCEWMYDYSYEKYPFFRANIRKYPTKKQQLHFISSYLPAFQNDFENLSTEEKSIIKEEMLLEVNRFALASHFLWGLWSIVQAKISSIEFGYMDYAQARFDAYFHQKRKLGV
Experimental: as §3

[10] = test system: PNT1A cell line; assay: Anti-proliferative SRB assay, PNT1A; assay type: cell-based; settings: Homo sapiens, PSMA −, Table S3, ± SD
Experimental: (§4) Half-maximal growth inhibitory concentrations (GI50) were determined using sulforhodamine B (SRB) assay as described elsewhere. In brief, cells were seeded in 96-wells at respective cell densities determined by their cell growth curves. After 24 h, the cells were treated in six replicates with medium or different concentrations of CHKA inhibitors in medium and incubated for another 72 h. On completion of incubation, the cells were fixed with 10% trichloroacetic acid (TCA) and stained with 0.4% SRB in 1% acetic acid. The stained protein was solubilized with 10 mM Tris base and optical density values were measured at 540 nm using a Multiskan® EX Micro plate photometer (Thermo Scientific, Loughborough, UK). Growth inhibition curves were plotted as percentage of the control groups and GI50 data were determined by least squares fitting method using GraphPad Prism 7.0. All the chemicals used in this experiment were obtained from Sigma-Aldrich (Gillingham, UK).

[11] = test system: R1AD1 cell line; assay: Anti-proliferative SRB assay, R1AD1; assay type: cell-based; settings: Homo sapiens; R1AD1, PSMA −; Table S3, ± SD
Experimental: as §4

[12] = biological target: CHK b (CHKB) (Homo sapiens, UniProt Q9Y259); assay: Lipid kinase screening (ADP-Glo), CHKB; assay type: biochemical
Chain of CHK b (CHKB) (Q9Y259 whole entry): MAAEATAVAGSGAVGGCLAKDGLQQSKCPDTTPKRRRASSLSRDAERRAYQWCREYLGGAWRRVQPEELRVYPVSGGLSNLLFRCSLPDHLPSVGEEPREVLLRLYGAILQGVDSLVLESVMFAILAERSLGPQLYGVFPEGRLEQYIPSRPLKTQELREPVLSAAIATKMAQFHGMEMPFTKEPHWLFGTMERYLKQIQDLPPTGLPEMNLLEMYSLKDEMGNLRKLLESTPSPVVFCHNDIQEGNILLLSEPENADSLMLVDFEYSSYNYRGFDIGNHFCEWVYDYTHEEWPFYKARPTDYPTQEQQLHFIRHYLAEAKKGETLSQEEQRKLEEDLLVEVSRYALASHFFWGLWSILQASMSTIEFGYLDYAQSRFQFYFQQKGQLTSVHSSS
Experimental: as §3

[13] = test system: HCT-116 cells; assay: Anti-proliferative SRB assay, HCT-116; assay type: cell-based; settings: Homo sapiens
Experimental: as §4

[14] = biological target: DGK z (Homo sapiens, UniProt Q13574); assay: Lipid kinase screening (ADP-Glo), DGK z; assay type: biochemical
Chain of DGK z (Q13574 whole entry): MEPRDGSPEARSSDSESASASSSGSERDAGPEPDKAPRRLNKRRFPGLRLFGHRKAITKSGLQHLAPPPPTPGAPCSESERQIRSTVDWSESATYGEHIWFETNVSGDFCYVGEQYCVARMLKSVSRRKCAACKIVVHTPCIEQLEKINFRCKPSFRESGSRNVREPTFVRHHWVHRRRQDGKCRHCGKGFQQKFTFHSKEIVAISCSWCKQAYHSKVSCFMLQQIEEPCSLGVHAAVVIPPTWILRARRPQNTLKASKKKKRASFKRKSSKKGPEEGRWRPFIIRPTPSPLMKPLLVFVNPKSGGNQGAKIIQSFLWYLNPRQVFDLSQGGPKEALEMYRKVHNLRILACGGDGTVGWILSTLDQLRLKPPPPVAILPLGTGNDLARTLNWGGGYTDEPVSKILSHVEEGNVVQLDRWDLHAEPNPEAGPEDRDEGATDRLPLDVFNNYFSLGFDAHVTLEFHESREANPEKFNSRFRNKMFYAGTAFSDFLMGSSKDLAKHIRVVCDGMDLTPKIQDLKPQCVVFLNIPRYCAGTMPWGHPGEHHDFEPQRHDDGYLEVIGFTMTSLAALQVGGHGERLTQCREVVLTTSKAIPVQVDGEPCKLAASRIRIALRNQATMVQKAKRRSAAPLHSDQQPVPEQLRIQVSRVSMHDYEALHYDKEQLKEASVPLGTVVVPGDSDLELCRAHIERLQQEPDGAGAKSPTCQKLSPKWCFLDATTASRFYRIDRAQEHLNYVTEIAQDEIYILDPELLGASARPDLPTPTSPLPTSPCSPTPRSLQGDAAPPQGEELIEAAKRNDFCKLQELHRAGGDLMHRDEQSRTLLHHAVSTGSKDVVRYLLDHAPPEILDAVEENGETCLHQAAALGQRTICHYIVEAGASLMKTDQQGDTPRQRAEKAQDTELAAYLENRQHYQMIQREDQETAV
Experimental: as §3

[15] = test system: eight cell lines (22Rv1, C4-2B, LNCap, PC3, PNT1A, R1-AD1, R1-D567, HCT-116); assay: Anti-proliferative SRB assay, mean across eight cell lines; assay type: cell-based; settings: Homo sapiens
Experimental: as §4

[16] = test system: C4-2B prostate cancer cells; assay: Cellular uptake and metabolism study in C4-2B with or without serum (HPLC); settings: 50 μM, 4 h; for mean cellular uptake: mean of ICL-CCIC-0019 and CK146; for detection in cell lysates by HPLC (in words): both FCS groups
Experimental: Cell lysate sample preparation: C4-2B prostate cancer cells were seeded into cell culture dishes (150 × 25 mm) at a density of 7 × 10^6 per dish. The cells were allowed to settle and grow for another 48 h. The cells were treated with ICL-CCIC-0019, CK146, CK147 and CK148 (50 μM of 7 mL RPMI medium with or without 10% FCS) for 4 h in the incubator. After 4-h incubation, the aliquots of medium were collected (see the medium sample preparation section). Cells were scraped, washed with ice-cold PBS three times and collected by centrifugation (4 °C, 4000× g). The cell pellets were resuspended in 500 μL of chilled acetonitrile:PBS (50:50, v/v) for cell disruption and homogenization. The cell disruption was performed by a Precellys® 24 homogenizer (Bertin Technologies, Montigny-le-Bretonneux, France) at 4 °C. After acetonitrile evaporation at room temperature, 50 μL of cell lysis was taken for protein analysis. Another 100 μL of the supernatant obtained after centrifuge (4 °C, 15,000× g) was resuspended in 100 μL formic acid:water (0.2%, v/v). Next, 100 μL of the filtered solution was analyzed by HPLC system described in Supplementary HPLC method D. Three injections were performed for each sample. Intracellular drug was normalized to cellular protein of each plate using BCA assay. Medium sample preparation for HPLC analysis: 250-μL aliquots of medium (with or without 10% FCS) were transferred into 1.5-mL tube containing 250 μL acetonitrile. After a brief vortex, the tube was placed at 4 °C for 30 min for protein precipitation. One hundred microliters of the resulting supernatant from centrifuge (4 °C, 15,000× g) were resuspended in 100 μL formic acid: water (0.2%, v/v). One hundred microliters of the filtered sample were analyzed by HPLC system described in Supplementary HPLC method D. Three injections were performed for each sample.

[17] = HCT-116, PSMA −, Table S3, ± SD
[18] = HCT-116, SRB, 72 h, Table S2, ± SD

Matrix Stability: Remaining % [1] [%] | half-life [1] [h] | inhibition at 10 µM [2] [%] | inhibition at 10 µM [3] [%] | inhibition at 10 µM [4] [%] | inhibition at 10 µM [5] [%] | Human Microsomal Metabolic Stability: Remaining % ([6]; human liver microsome S9) [%] | Predicted in vivo clearance [6] [mL/min/kg] | solubility kinetic [7] [µM] | inhibition at 10 µM [8] [%] | inhibition at 10 µM [9] [%] | % Inhibition CHK a [9] [%] | inhibition at 10 µM [12] [%] | GI50 [13, 17] [µM] | GI50 [13, 18] [µM] | inhibition at 10 µM [14] [%] | PCT_LBF % (percentage of compound removed compared to liver blood flow) [6] [%] | microsomal CLint [6] [µL/min/mg] | Compound | GI50 [10] [µM] | GI50 [11] [µM] | further results
74 | 9.2 | -1.8 | 2.9 | -1 | 13.2 | 2 | 19 | 178 | 13.2 | 63 | 62.9 | -18.1 | 103 ± 6.27 | 6.63 ± 0.2 | 11.6 | – | – | CC(=O)NCCCCC(NC(=O)OC(C)(C)C)C(=O)N1CCN(c2cc[n+](CCCCCCCCCCCCCC[n+]3ccc(N(C)C)cc3)cc2)CC1 (stereo not shown) [CK145] | 63.6 ± 10.4 | 53.4 ± 2.27 | FaSSGF stability (in words) ([1]; low pH (1.6)): Rapid decomposition; metabolic stability (in words) ([6]; human liver microsome S9): Rapid decomposition
92 | > 10 | -1 | 6.7 | -5.4 | 10 | 127 | <10 | 158 | 10.7 | 69 | 69.1 | -49 | 4.76 ± 0.8 | 4.76 ± 0.8 | 8.6 | <45 | < 14 | CN(C)c1cc[n+](CCCCCCCCCCCCCC[n+]2ccc(N3CCNCC3)cc2)cc1 [CK146] | 3 ± 0.26 | 5.67 ± 2.33 | half-life [6]: > 1.67 h; GI50 [15]: 3.8 ± 0.9 µM; mean cellular uptake ([16]; FCS negative group): 34.1 ± 0.6 % μg^−1 protein; mean cellular uptake ([16]; FCS positive group (10% FCS)): 24.9 ± 1.4 % μg^−1 protein; detection in cell lysates by HPLC (in words) [16]: detected
117 | > 10 | -6.1 | 4.9 | 1 | 22.4 | 92 | <10 | 161 | 7.8 | 53 | 53.4 | -28.6 | 0.42 ± 0.03 | 0.42 ± 0.03 | 7.5 | <45 | < 14 | CN(C)c1cc[n+](CCCCCCCCCCCC[n+]2ccc(N(C)C)cc2)cc1 [ICL-CCIC-0019] | 0.47 ± 0.08 | 0.4 ± 0.01 | half-life [6]: > 1.67 h; GI50 [15]: 0.6 ± 0.1 µM; mean cellular uptake ([16]; FCS negative group): 34.1 ± 0.6 % μg^−1 protein; mean cellular uptake ([16]; FCS positive group (10% FCS)): 24.9 ± 1.4 % μg^−1 protein; detection in cell lysates by HPLC (in words) [16]: detected

— article PMC8309005, “Novel Non-Congeneric Derivatives of the Choline Kinase Alpha Inhibitor ICL-CCIC-0019” (Pharmaceutics, 2021)
